Test results published in BigSolDB 2.1.

CC(C)(O)P1(=O)OCC2(CO1)COP(=O)(C(C)(C)O)OC2 (stereo not given)
Conditions	solubility (mole fraction)
in acetic acid, 293.16 K	0.00691
in acetic acid, 298.15 K	0.0078
in acetic acid, 303.14 K	0.00907
in acetic acid, 307.96 K	0.0104
in acetic acid, 312.97 K	0.0114
in acetic acid, 318.05 K	0.0131
in acetic acid, 323.15 K	0.015
in acetic acid, 328.05 K	0.0173
in acetic acid, 333.04 K	0.0196
in acetic acid, 338.14 K	0.0231
in acetone, 293.6 K	0.000582
in acetone, 298.44 K	0.000762
in acetone, 303.35 K	0.00095
in acetone, 308.29 K	0.00124
in acetone, 313.27 K	0.00159
in acetone, 318.4 K	0.00194
in acetone, 323.3 K	0.00234
in ethanol, 294.15 K	0.00153
in ethanol, 297.63 K	0.00184
in ethanol, 303.05 K	0.00231
in ethanol, 307.95 K	0.00269
in ethanol, 313.15 K	0.00346
in ethanol, 318.16 K	0.00391
in ethanol, 322.95 K	0.00476
in ethanol, 327.84 K	0.00582
in ethanol, 332.93 K	0.00666
in ethanol, 337.94 K	0.00846
in methanol, 293.13 K	0.00585
in methanol, 298.15 K	0.00665
in methanol, 302.94 K	0.00751
in methanol, 307.75 K	0.00875
in methanol, 312.76 K	0.00998
in methanol, 317.95 K	0.0117
in methanol, 323.05 K	0.0136
in water, 293.13 K	0.00564
in water, 298.01 K	0.00585
in water, 303.15 K	0.00607
in water, 308.16 K	0.00631
in water, 313.05 K	0.00658
in water, 317.89 K	0.00692
in water, 323.05 K	0.00723
in water, 328.13 K	0.00754
in water, 332.95 K	0.00793
in water, 337.94 K	0.00826
in water, 342.86 K	0.00867
